Test results reported in patent US4288609A, “Quaternary ammonium derivatives of adamantane with antimicrobic activity” (priority 1976, dated 1981).
Where two headings read alike, the source gives them in different places.

How the values were obtained:
Staph.Aureus Tour = experiment: M.I.C. in vitro, gram+ Staph. Aureus (Table 1); assay type: cell-based, Staphylococcus Aureus; conditions: Staphylococcus aureus, read-out: M.I.C.
Experimental: (§1) The method for evaluating the activity in vitro against bacteria, fungi and protozoa consists in introducing calculated quantities of the substance, the activity of which it is desired to test, into culture media already inoculated with a predetermined number of test germs.
(§2) After 24 or 48 hours of incubation at 30° or 37° C., according to the micro-organism being tested, it is possible to evaluate the growth of the same in the culture broth; in this manner the minimum concentration (M.I.C.) which inhibits the growth of the micro-organisms in vitro is determined.
(§3) In table 1 there are recorded the M.I.C. values in γ/ml of the products subject of the present invention, against certain gram+ and gram- bacterial strains, some of which are pathogenic towards human beings.

Diplococcus Pneum. ISM = experiment: M.I.C. in vitro, gram+ Diplococcus Pneum. (Table 1); assay type: cell-based; conditions: read-out: M.I.C.
Experimental: as §1, §2, §3

[1] = tested on: Streptococ. Henclyt. 0203; experiment: M.I.C. in vitro, gram+ Streptococ. Henclyt. (Table 1); assay type: cell-based; conditions: for MIC: read-out: M.I.C.
Experimental: as §1, §2, §3

Esch. Coli. SKF 12140 = experiment: M.I.C. in vitro, gram- Esch. Coli (Table 1); assay type: cell-based, Escherichia Coli; conditions: Escherichia coli, read-out: M.I.C.
Experimental: as §1, §2, §3

Klens. Pneum. ISM = experiment: M.I.C. in vitro, gram- Klens. Pneum. (Table 1); assay type: cell-based; conditions: read-out: M.I.C.
Experimental: as §1, §2, §3

Proteus Vulc. ATCC 881 = experiment: M.I.C. in vitro, gram- Proteus Vulc. (Table 1); assay type: cell-based; conditions: read-out: M.I.C.
Experimental: as §1, §2, §3

Pseudom.Aer. ATCC 1014 = experiment: M.I.C. in vitro, gram- Pseudom. Aer. (Table 1); assay type: cell-based, Pseudomonas Aeruginosa; conditions: for MIC: Pseudomonas aeruginosa, read-out: M.I.C.
Experimental: as §1, §2, §3

[2] = tested on: Trych. Mentagr. 1st.Pastuer; experiment: MIC mildews, Trichophyton mentagrophytes (Table 2); assay type: cell-based; conditions: Sabourand broth
Experimental: as §1, §2
(§4) Inoculation with Trichophyton mentagrophytes and Microsporum canis was effected in a ratio of 1% of the volume of medium used.
(§5) For the fungi Sabourand broth was used as a culture medium, whilst for the protozoa Kupferberg Trichomonas broth with 5% of horse serum was used.

[3] = tested on: Nicrosporum Canis ATCC 11621; experiment: MIC mildews, Microsporum canis (Table 2); assay type: cell-based; conditions: Sabourand broth
Experimental: as §1, §2, §4, §5

Candida Albic. SKF 2270 = experiment: MIC yeasts, Candida albicans (Table 2); assay type: cell-based; conditions: Sabourand broth
Experimental: as §1, §2
(§6) Inoculation with Candida albicans or Candida pseudotropicalis was made by diluting cultures grown for 24 h at 30° C. (cellular density inoculated 10^3 /ml).
as §5

[4] = tested on: Candida Pseudotrop. ATCC 2512; experiment: MIC yeasts, Candida pseudotropicalis (Table 2); assay type: cell-based; conditions: Sabourand broth
Experimental: as §1, §2, §6, §5

[5] = tested on: Trich. Vaginalis ISM 66/22; experiment: MIC protozoa, Trichomonas vaginalis (Table 2); assay type: cell-based; conditions: Trichomonas vaginalis, +10% serum (head); Kupferberg Trichomonas broth with 5% of horse serum; read-out: MIC
Experimental: as §1, §2
(§7) Inoculation with Trichomonas vaginalis and Trichomonas foetus, obtained from cultures transplanted every other day to make them lively, was effected in a ratio of 3.5% of the volume of medium used.
as §5

Trich. Foetus ISM 66/23 = experiment: MIC protozoa, Trichomonas foetus (Table 2); assay type: cell-based; conditions: +10% serum (head), Kupferberg Trichomonas broth with 5% of horse serum
Experimental: as §1, §2, §7, §5

[6] = Acute oral toxicity in mice (Table 4); conditions: mouse, in vivo, po, LD50, oral, mice, 14 days
Experimental: The substances were administered orally to groups of 10 female mice CF1 of average weight of about 20 grams, in aqueous solution and in such way that the total volume administered would be in each case 1 ml/100 g of weight.

[7] = Trichophyton mentagrophytes, +10% serum, read-out: MIC
[8] = Trichophyton mentagrophytes, without serum, read-out: MIC
[9] = Microsporum canis, ATCC11621, +10% serum, read-out: MIC
[10] = Microsporum canis, ATCC11621, without serum, read-out: MIC
[11] = Candida, +10% serum, read-out: MIC
[12] = Candida, without serum, read-out: MIC
[13] = Candida, ATCC2512, +10% serum, read-out: MIC
[14] = Candida, ATCC2512, without serum, read-out: MIC
[15] = Tritrichomonas foetus, read-out: MIC

Row | SMILES | MIC (Staph.Aureus Tour; +10% serum) [µg/mL] | MIC (Staph.Aureus Tour; without serum) [µg/mL] | MIC (Diplococcus Pneum. ISM; +10% serum) [µg/mL] | MIC (Diplococcus Pneum. ISM; without serum) [µg/mL] | MIC ([1]; +10% serum) [µg/mL] | MIC ([1]; without serum) [µg/mL] | MIC (Esch. Coli. SKF 12140; +10% serum) [µg/mL] | MIC (Esch. Coli. SKF 12140; without serum) [µg/mL] | MIC (Klens. Pneum. ISM; +10% serum) [µg/mL] | MIC (Klens. Pneum. ISM; without serum) [µg/mL] | MIC (Proteus Vulc. ATCC 881; +10% serum) [µg/mL] | MIC (Proteus Vulc. ATCC 881; without serum) [µg/mL] | MIC (Pseudom.Aer. ATCC 1014; ATCC1014, +10% serum) [µg/mL] | MIC (Pseudom.Aer. ATCC 1014; ATCC1014, without serum) [µg/mL] | MIC [2, 7] [µg/mL] | MIC [2, 8] [µg/mL] | MIC (Candida Albic. SKF 2270; [12]) [µg/mL] | MIC [4, 13] [µg/mL] | MIC [5] [µg/mL] | LD50 at 336 h [6] [mg/kg] | also measured
1 | CCCCCCCCCCCC[N+](CC)(CC)CCOC(=O)C12CC3CC(CC(C3)C1)C2 [Example 6, n-Dodecyl-diethyl-(1-adamantane-carboxy)-ethyl-ammonium bromide] | 10 | 0.1 | 5 | 2 | 2 | 0.5 | 100 | 10 | 100 | 10 | 100 | 20 | 100 | 50 | 20 | 0.5 | 2 | 50 | 10 | 935 | MIC [3, 9]: 50 µg/mL; MIC [3, 10]: 0.5 µg/mL; MIC (Candida Albic. SKF 2270; [11]): 50 µg/mL; MIC [4, 14]: 0.5 µg/mL; MIC (Trich. Foetus ISM 66/23; [15]): 5 µg/mL
2 | CCCCCCCCCC[N+](C)(C)CCNC(=O)C12CC3CC(CC(C3)C1)C2 [Example 7] | 5 | 0.2 | 10 | 0.5 | 2 | 0.2 | 100 | 10 | 50 | 10 | 100 | 10 | 100 | 50 | 20 | 0.5 | 5 | 50 | 5 | 955 | MIC [3, 9]: 20 µg/mL; MIC [3, 10]: 0.5 µg/mL; MIC (Candida Albic. SKF 2270; [11]): 50 µg/mL; MIC [4, 14]: 0.2 µg/mL; MIC (Trich. Foetus ISM 66/23; [15]): 2 µg/mL
3 | CCCCCCCCCC[N+](CC)(CC)CCNC(=O)C12CC3CC(CC(C3)C1)C2 [Example 9, n-Decyl-diethyl-(1-adamantane-carbonylamido)-ethylammonium bromide] | 5 | 0.1 | 5 | 1 | – | – | 50 | 5 | 50 | 10 | 100 | 5 | 50 | – | – | – | 1 | 50 | 5 | 980 | M.I.C. ([1]; +10% serum): 0.5 µg/mL; M.I.C. ([1]; without serum): 0.1 µg/mL; M.I.C. (Pseudom.Aer. ATCC 1014; without serum): 10 µg/mL; MIC ([2]; +10% serum): 10 µg/mL; MIC ([2]; without serum): 0.2 µg/mL; MIC ([3]; +10% serum): 20 µg/mL; MIC ([3]; without serum): 0.2 µg/mL; MIC (Candida Albic. SKF 2270; +10% serum): 20 µg/mL; MIC ([4]; without serum): 0.2 µg/mL; MIC (Trich. Foetus ISM 66/23): 2 µg/mL
